From article PMC4823124, “Selective targeting of BCL6 induces oncogene addiction switching to BCL2 in B-cell lymphoma” (Oncotarget, 2015)

What was measured:
OCI-Ly1 cells = assay: Cell viability of OCI-Ly1 cells transfected with siRNA and treated with ABT-737; format: cell-based; conditions: ABT-737 250 nM for 72 h
Protocol: DLBCL cells (3 × 10^6 to 5 × 10^6) were transfected with 1 micromolar siRNA for BCL6 (siBCL6-1 HSS100968 Life Technologies, siBCL6-2 SI00311129 Qiagen, siBCL6-3 SI0031143 Qiagen and siBCL6-4 SI0031150 Qiagen) or control (GFP targeting siRNA) using 96-well electroporation (SF buffer, Lonza).
Cells were grown on U-bottom 96-well plates at respective concentrations sufficient to keep untreated cells under exponential growth by the time of read-out after treatment. Cells were exposed to each drug alone and to the combination of both drugs on the same plate in 48 h experiments. In sequential experiments, compounds were added 48 h apart in 72 h experiments. Cell viability was then determined using a fluorometric assay based on the resazurin reduction activity of the cells (Cell Titer Blue, Promega) and confirmed by trypan blue dye-exclusion (Sigma). Fluorescence was determined for controls and three replicates per treatment condition using the Synergy4 microplate reader (BioTek). Standard curves were obtained for each individual cell line with the cell count and fluorescence values. The number of viable cells was obtained using the least-squares regression method of the standard curve and by doing a ratiometric quantification of viable cells normalized to the respective controls. […] A cell killing effect was calculated as the 1 — normalized viability value.

OCI-Ly4 = assay: Cell viability, RI-BPI, ABT-737 or combination; format: cell-based; conditions: BCL6-independent GCB-DLBCL cell line OCI-Ly4; 48 h; quintuplicates
Protocol: Cells were grown on U-bottom 96-well plates at respective concentrations sufficient to keep untreated cells under exponential growth by the time of read-out after treatment. Cells were exposed to each drug alone and to the combination of both drugs on the same plate in 48 h experiments. In sequential experiments, compounds were added 48 h apart in 72 h experiments. Cell viability was then determined using a fluorometric assay based on the resazurin reduction activity of the cells (Cell Titer Blue, Promega) and confirmed by trypan blue dye-exclusion (Sigma). […] Standard curves were obtained for each individual cell line with the cell count and fluorescence values. The number of viable cells was obtained using the least-squares regression method of the standard curve and by doing a ratiometric quantification of viable cells normalized to the respective controls. […] A cell killing effect was calculated as the 1 — normalized viability value.
(§1) www.impactjournals.com/oncotarget/ Oncotarget, Supplementary Materials 2015
Supplementary Figure S2: Baseline features of DLBCL cells responsive and resistant to RI-BPI. A. Baseline features of
RI-BPI sensitive (S) and resistant (R) groups of DLBCL cells according to cell-of-origin (COO) classification into GCB and ABC groups,
the presence of BCL6 translocation (3q27) and BCL2 mutation (including amplification and translocation). […]

DoHH2 = assay: Growth inhibition (GI50); format: cell-based; conditions: 48 h, resazurin reduction
Protocol: (§2) Cells were grown on U-bottom 96-well plates at respective concentrations sufficient to keep untreated cells under exponential growth by the time of read-out after treatment. Cells were exposed to each drug alone and to the combination of both drugs on the same plate in 48 h experiments. In sequential experiments, compounds were added 48 h apart in 72 h experiments. Cell viability was then determined using a fluorometric assay based on the resazurin reduction activity of the cells (Cell Titer Blue, Promega) and confirmed by trypan blue dye-exclusion (Sigma). Fluorescence was determined for controls and three replicates per treatment condition using the Synergy4 microplate reader (BioTek). Standard curves were obtained for each individual cell line with the cell count and fluorescence values. The number of viable cells was obtained using the least-squares regression method of the standard curve and by doing a ratiometric quantification of viable cells normalized to the respective controls. Experiments were conducted in triplicates. A cell killing effect was calculated as the 1 — normalized viability value.

OCI-Ly7 = assay: Growth inhibition (GI50); format: cell-based; conditions: OCI-Ly7 (harbors a BCL2 deletion); Figure 2A, for ABT-737 also ref 14
Protocol: as §2

SC-1 = assay: Growth inhibition (GI50); format: cell-based; conditions: 48 h, resazurin reduction
Protocol: as §2

SU-DHL4 = assay: Growth inhibition (GI50); format: cell-based; conditions: 48 h, resazurin reduction
Protocol: as §2

SU-DHL6 = assay: Growth inhibition (GI50); format: cell-based; conditions: 48 h, resazurin reduction
Protocol: as §2

[1] = system: BCL2 independent DLBCL cells; assay: Dose reduction index, sequential RI-BPI then BH3 mimetic; format: cell-based; conditions: pre-treated 48 h with RI-BPI, sequential 72 h; all but one (SU-DHL8) of the BCL2 independent DLBCL cell lines, including OCI-Ly7
Protocol: as §2

OCI-Ly1 xenografts = assay: OCI-Ly1 xenograft tumor growth; format: in vivo; conditions: OCI-Ly1 xenografts in SCID mice, i.p. 10 days; RI-BPI 25 mg/kg/day, ABT-737 50 mg/kg/day, bortezomib 0.3 mg/kg/day, MLN4924 15 mg/kg every 12 h; p<0.05, T-test
Protocol: (§3) For these experiments OCI-Ly1 and OCI-Ly7 cells were injected in the right flank of SCID mice (n = 80 for each cell line) and tumor growth was allowed until reaching a volume of 75 - 100 mm^3. […] Tumor growth was measured every day during the 10-day treatment course and the area under the curve (AUC) was calculated.
(§4) Mouse xenografts: Animal procedures followed NIH protocols and were approved by the Animal Institute Committee of the Weill Cornell College or Medicine. SCID mice were subcutaneously injected on the right flank with GCB-DLBCL cell lines OCI-Ly1, OCI-Ly7 and SU-DHL6. Tumor volumes were monitored every day using electronic calipers (Fischer Scientific). When tumor reached a palpable size (around 75 to 100 mm^3) animals were randomized into 8 groups of 10 mice (or four groups of 5 mice for SU-DHL6 xenografts) and treated intraperitoneally accordingly to the schedule and doses shown in Figure 5A. In combinatorial treatments, mice were injected with RI-BPI (or vehicle) alone the first day followed by the combination the subsequent days. We used the area-under-the-curve (AUC) as the quantitative metric to represent the evolution of tumor volume over the time frame (10 – 13 days) of the experiment. The comparisons between treated and control mice were done using MANOVA followed by pair-wise comparison using the two-tailed T-test or Mann Whitney test for SU-DHL6 mice. Rat pharmacokinetic: Animal procedures followed NIH protocols and were conducted by Calvert Laboratories (study 0835RM44.001, Scott Township, PA). Briefly, male Sprague=Dawley rats (n = 3) were injected intravenously with 10 mg/kg of RI-BPI in sterile 50% water:50% saline and whole blood samples were collected through a jugular vein catheter at several time-points. Derived plasma samples were analyzed by HPLC-UV to determine RI-BPI concentration. Pharmacokinetic parameters were estimated using a non-compartmental approach consistent with the route of administration. The AUC that describe the total exposure to RI-BPI was estimated with the linear trapezoidal method and used to derive in vitro exposure doses.

[2] = system: BCL6-dependent GCB-DLBCL cell lines; assay: Dose reduction index, MLN4924 or bortezomib after RI-BPI; format: cell-based; conditions: 8 BCL6-dependent GCB-DLBCL cell lines pre-treated with RI-BPI; all the cell lines tested
Protocol: as §2

NOXA = NOXA immunoblot; format: cell-based; conditions: SU-DHL6 and OCI-Ly1 cells, 24 h
Protocol: (§5) Cell pellets containing 5 × 10^6 cells were washed with ice-cold phosphate buffer saline and lysed with RIPA buffer (Tris-HCl 50mM, NaCl, 150 mM, NP-40 1%, Sodium Deoxylcholate 0.25%, SDS 0.1%), and fresh protease inhibitor cocktail (Roche) was added. Protein concentration in lysates was determined by BCA assay (Pierce) and 15 μg of protein sample were loaded on polyacrylamide electrophoresis pre-cast gels (BioRad). PVDF membranes were blocked with 5% non-fat dry milk (Blotting buffer, BioRad). Experiments were conducted at least in independent triplicates. Densitometry analysis was performed using ImageJ. We used the following primary antibodies: mouse anti-BCL6 (SC-7388, Santa Cruz), rabbit anti-BCL2 (SC-7382, Santa Cruz), rabbit anti-MCL1 (SC-819, Santa Cruz), rabbit anti-BIM (2933S, Cell Signaling Technologies), rabbit anti-BLC-XL (2764S, Cell Signaling Technologies), mouse anti-GAPDH (ab8245, Abcam), rabbit anti-NOXA (Santa Cruz), mouse anti-tubulin (T9026, Sigma-Aldrich), rabbit anti-BMF (ab181148, Abcam) and rabbit anti-caspase 9 (9502, Cell Signaling Technologies).

NFkB (p50, p52, p65) = assay: NFkB DNA-binding activity assay (TransAM), HBL-1 cells; format: cell-based; conditions: HBL-1 (ABC-DLBCL) cells; drug at GI50 for 24 h; decreased almost completely
Protocol: The DNA-binding capacity of NFkB (p50, p52, c-Rel, Rel-B and p65) was assayed by a plate-based assay (TransAM, Active Motif, Carlsbad) following the manufacturer instructions. Briefly, 5×10^6 GCB-DLBCL cells were treated with vehicle, bortezomib or MLN4924 and 10 μg of nuclear lysates were added to the wells containing pre-adsorbed NFkB consensus or competitor (mutant) oligonucleotides. HBL-1 cells (ABC-DLBCL) were used as positive controls for the assay. After incubation and washing, primary anti-NFkB antibody was added to each well, followed by HPR-anti-rabbit secondary antibody. After HRP substrate addition, absorbance was read at 450 nm with a reference wavelength of 655 nm (Synergy4, Biotek). In this assay the absorbance is directly proportional to the quantity of DNA-bound transcription factor present in the sample. Experiments were carried out in four replicates. Results were expressed as mean absorbance values with SEM to mutant probe. P-values were obtained by two-tailed T-test.

NFkB (p50) = assay: NFkB DNA-binding activity assay (TransAM), OCI-Ly1 cells; format: cell-based; conditions: drug at GI50 for 24 h, only p50 changed
OCI-Ly7 xenografts = assay: OCI-Ly7 xenograft tumor growth; format: in vivo, SCID mice; conditions: p<0.05, T-test; for tumor growth at day 10 (AUC of tumor volume) vs vehicle: OCI-Ly7 xenografts in SCID mice, i.p. 10 days, RI-BPI 25 mg/kg/day, obatoclax 2 mg/kg/day, bortezomib 0.3 mg/kg/day, MLN4924 15 mg/kg every 12 h
Protocol: as §3, §4

[3] = for MPV: C57BL/6 mice, i.p., schedule and doses of xenograft mice (RI-BPI 25, obatoclax 2, bortezomib 0.3 mg/kg/day, MLN4924 15 mg/kg every 12 h), vehicle 6.7
Description: as §1
Hematological and biochemical parameters of C57BL/6 mice treated with the schedule and doses of OCI-Ly1 and OCI-Ly7

OCI-Ly1 lymphoma tissues = assay: TUNEL assay of xenografted lymphoma tissues; format: in vivo, SCID mice; conditions: post-treatment OCI-Ly1 lymphoma tissues; Mann-Whitney p = 0.0004 (RI-BPI), 0.002 (obatoclax), 0.0008 (bortezomib)
Protocol: DNA fragmentation coupled to the apoptotic response was detected in morphologically identifiable nuclei and apoptotic bodies present in formalin-fixed paraffin-embedded tumors by the TUNEL assay (ApopTag, Chemicon, Temecula, California) following the manufacturer's instructions. Tissue slides were pre-treated with 0.5% trypsin for 15 minutes (Zymed, San Francisco, California), to improve the exposure of DNA.

[4] = system: BCL6-dependent GCB-DLBCL cells; assay: Growth inhibition (GI50), panel of BCL6-dependent GCB-DLBCL cells; format: cell-based; conditions: 6 cell lines of the GCB-DLBCL panel; single agent
Protocol: as §2

BMF = BMF immunoblot; format: cell-based; conditions: SU-DHL6 cells
Protocol: as §5

Compound | sensitivity as single agent (GI50) (DoHH2) | sensitivity as single agent (GI50) (OCI-Ly7) | sensitivity as single agent (GI50) (SC-1) | sensitivity as single agent (GI50) (SU-DHL4) | sensitivity as single agent (GI50) (SU-DHL6) | sensitivity to BH3 mimetic after RI-BPI treatment (dose reduction index) [1] | tumor growth at day 10 (AUC of tumor volume) vs vehicle (OCI-Ly1 xenografts) | enhancement of response to RI-BPI (dose reduction index) [2] | NOXA protein levels (NOXA) | NFκB activation (DNA binding of p50, p52 and p65) (NFkB (p50, p52, p65)) | tumor growth at day 10 (AUC of tumor volume) vs vehicle (OCI-Ly7 xenografts) | MPV [3] [fL] | percent of apoptotic nuclei (TUNEL) vs vehicle control (OCI-Ly1 lymphoma tissues) | also measured
CN(C)CC[C@H](CSc1ccccc1)Nc1ccc(S(=O)(=O)NC(=O)c2ccc(N3CCN(Cc4ccccc4-c4ccc(Cl)cc4)CC3)cc2)cc1[N+](=O)[O-] [ABT-737] | sensitive | highly resistant | sensitive | sensitive | sensitive | gained sensitivity | significantly reduced | – | – | – | – | – | – | loss of viability (OCI-Ly1 cells; OCI-Ly1 transfected with BCL6 siRNA, BCL6 knockdown alone 68%, p < 0.03, T-test): 97%; cells killed (loss of viability) (OCI-Ly1 cells; OCI-Ly1 transfected with control siRNA): 57%; sensitization to RI-BPI by pre-treatment with ABT-737 (OCI-Ly4): failed to sensitize
CC(C)C[C@H](NC(=O)[C@H](Cc1ccccc1)NC(=O)c1cnccn1)B(O)O [bortezomib] | – | – | resistant | resistant | – | – | significantly reduced | favorable DRIs | significant stabilization of NOXA | decreased | significantly reduced | 6.6 | significantly increased | NFκB activation (DNA binding of p50) (NFkB (p50)): mild decrease; single-agent efficacy compared between drugs (OCI-Ly7 xenografts; OCI-Ly7 xenografts): more effective than obatoclax; toxicity by body weight follow-up, plasma hematology and biochemistry parameters ([3]; mouse, in vivo): mild monocytosis and AST increase
NS(=O)(=O)OC[C@@H]1C[C@@H](n2ccc3c(N[C@H]4CCc5ccccc54)ncnc32)C[C@@H]1O [MLN4924] | – | – | – | – | – | – | significantly reduced | favorable DRIs | significant stabilization of NOXA | decreased | significantly reduced | 6.5 | – | GI50 [4]: > 100 nM; BMF protein levels (BMF): increased
COC1=CC(c2cc3ccccc3[nH]2)=N/C1=C\c1[nH]c(C)cc1C [obatoclax] | sensitive | highly resistant | sensitive | sensitive | sensitive | gained sensitivity | – | – | – | – | significantly reduced | 6.4 | significantly increased | –
